Values of other authors in US20220265666A1, “METHODS OF TREATING SUBSTANCE ABUSE DISORDER, DYSPNEA, TINNITUS, AND CHILD AND ADOLESCENT DEPRESSION” (Praxis Precision Medicines, Inc., priority 2019, published 2022).
Like-named read-outs stand apart in the source and are kept apart here.

Legend:
[1] = test system: craving to cocaine; conditions: clinical studies
[2] = test system: patients with well controlled asthma
[3] = test system: symptoms of tinnitus; conditions: clinical studies
[4] = test system: tinnitus behavior; conditions: non-clinical models of tinnitus
[5] = second day, same patients, previous inhalation with diazepam
[6] = first day of testing, methacholine inhalation 6 mg/mL, no diazepam, 12 patients

## CC(=O)[C@H]1CC[C@H]2[C@@H]3CCC4=CC(=O)CC[C@]4(C)[C@H]3CC[C@]12C [Progesterone]
[1]
  effect on craving to cocaine: decrease craving to cocaine

## CN1C(=O)CN=C(c2ccccc2)c2cc(Cl)ccc21 [diazepam]
[2]; diazepam aerosol, 12 patients with well controlled asthma
  effect on bronchoconstriction induced by methacholine: reduced the bronchoconstriction induced by methacholine
[2]; [5]
  FEV1 after methacholine inhalation: 2.21 L
  FEV1 before methacholine inhalation: 2.48 L

## O=C1CN=C(c2ccccc2Cl)c2cc([N+](=O)[O-])ccc2N1 [clonazepam]
[3]
  effect on symptoms of tinnitus: control some symptoms of tinnitus

## C=CC(N)CCC(=O)O (stereo not drawn) [vigabatrin]
[4]
  effect on tinnitus behavior: reverse the tinnitus behavior

## CNC1(c2ccccc2Cl)CCCCC1=O (stereo not drawn) [ketamine]
[4]
  effect on tinnitus behavior: not those that reduce excitation (i.e., ketamine) reverse the tinnitus behavior

## CC(=O)OC(C)C[N+](C)(C)C (stereo not drawn) [methacholine]
[2]; [6]
  FEV1 after methacholine inhalation: 1.69 L
  FEV1 before methacholine inhalation: 2.98 L
